Our source for the pest or weed control values is patent publication US20180186742A1, “PICOLINAMIDES AS FUNGICIDES” (Dow AgroSciences LLC, priority 2017, published 2018).

The structures appear in SMILES notation. Read-outs that look alike come from different tables or passages of the source. A value given as a limit tells only on which side of the number the result lay.

Type in all cases: in vivo
One assay relates to Puccinia triticina. The assay can be described thus: Wheat brown rust (PUCCRT), disease control on wheat seedlings. The conditions noted are these: for pest or weed control at 121.5 g/ha: low volume application at 121.5 g/H; for pest or weed control at 100 ppm: high volume application at 100 ppm. In a few lines: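 Compounds in acetone, diluted with nine volumes of water containing 110 ppm Triton X-100, sprayed to run-off on first-leaf Yuma wheat seedlings; track-spray tests used EC formulations with 0.1% Trycol 5941. Puccinia triticina spores applied before or after treatment. Overnight dark dew room at 22° C, 100% humidity, then greenhouse at 24° C.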

A further assay has as its system Phakopsora pachyrhizi. In words: Asian soybean rust (PHAKPA), disease control on soybean seedlings. The conditions noted are these: High volume application at 25 ppm. The procedure:
Technical grades of materials were dissolved in acetone, which were then mixed with nine volumes of water containing 0.011% Tween 20. The fungicide solutions were applied onto soybean seedlings using an automated booth sprayer to run-off. All sprayed plants were allowed to air dry prior to further handling.
Soybean plants (variety Williams 82) were grown in soil-less Metro mix, with one plant per pot. Two week old seedlings were used for testing. Plants were inoculated either 3 days prior to or 1 day after fungicide treatments. Plants were incubated for 24 h in a dark dew room at 22° C. and 100% relative humidity then transferred to a growth room at 23° C. for disease to develop. Disease severity was assessed on the sprayed leaves.

Another assay relates to Zymoseptoria tritici. In words: Leaf blotch of wheat (SEPTTR), disease control on wheat seedlings. The conditions noted are these: for pest or weed control at 121.5 g/ha: low volume application at 121.5 g/H; for pest or weed control at 100 ppm: high volume application at 100 ppm. An outline of the steps:
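Z. tritici spores were inoculated onto wheat seedlings (Yuma, first leaf emerged) either before or after treatment. Treatment was an automated spray to run-off of acetone/Triton X-100 water solutions, or a track spray of EC formulations with 0.1% Trycol 5941. Plants were held in dew chambers at 20 °C and then a greenhouse at 20 °C. First-leaf severity (0–100%) was converted to percent control against untreated plants.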

[1] abbreviates: 24 h, 1 Day Protectant, read-out: PUCCRT disease control, 1DP, LV activity.
Where [2] appears, read: 72 h, 3 Day Curative, read-out: PUCCRT disease control, 3DC, LV activity.
The mark [3] stands for this setting: 24 h, 1 Day Protectant, read-out: PHAKPA 1DP disease control rating.
[4] abbreviates: 72 h, 3 Day Curative, read-out: PHAKPA 3DC disease control rating.
Where [5] appears, read: 24 h, 1 Day Protectant, read-out: SEPTTR disease control, 1DP, LV activity.
Where [6] appears, read: 72 h, 3 Day Curative, read-out: SEPTTR disease control, 3DC, LV activity.
[7] abbreviates: 24 h, 1 Day Protectant, wheat brown rust, read-out: PUCCRT 1DP disease control, LV activity.
The mark [8] stands for this setting: 72 h, 3 Day Curative, wheat brown rust, read-out: PUCCRT 3DC disease control, LV activity.
The mark [9] stands for this setting: 24 h, 1 Day Protectant, wheat leaf blotch, read-out: SEPTTR 1DP disease control, LV activity.
Where [10] appears, read: 72 h, 3 Day Curative, wheat leaf blotch, read-out: SEPTTR 3DC disease control, LV activity.
[11] abbreviates: 24 h, 1 Day Protectant, read-out: PUCCRT disease control, 1DP, HV activity.
Setting [12] is: 72 h, 3 Day Curative, read-out: PUCCRT disease control, 3DC, HV activity.
Setting [13] is: 24 h, 1 Day Protectant, read-out: SEPTTR disease control, 1DP, HV activity.
[14] abbreviates: 72 h, 3 Day Curative, read-out: SEPTTR disease control, 3DC, HV activity.

In the case of `COc1cc(F)ccc1[C@H](C1CCCCC1)[C@H](C)OC(=O)[C@H](C)NC(=O)c1nccc(OC)c1OC(C)=O` [Compound 227], the pest or weed control at 121.5 g/ha in the assay on Puccinia triticina (setting [1]), with Puccinia triticina (setting [2]), in the assay with Zymoseptoria tritici (setting [5]) and with Zymoseptoria tritici (setting [6]) was over 80% throughout. Further, the figures for the pest or weed control at 25 ppm in the assay with Phakopsora pachyrhizi (setting [3]) and in the assay with Phakopsora pachyrhizi (setting [4]) were over 80% and under 80%, respectively.
In the case of `COc1ccnc(C(=O)N[C@@H](C)C(=O)O[C@H](C)[C@H](c2ccc(F)cc2C)C(C)C)c1OC(C)=O` [Compound 192], the pest or weed control at 121.5 g/ha in the assay with Puccinia triticina (setting [1]) is over 80%; in the assay on Puccinia triticina (setting [2]), under 80%; in the assay on Zymoseptoria tritici (setting [5]), under 0%; in the assay on Zymoseptoria tritici (setting [6]) it was over 80%. In addition, the pest or weed control at 25 ppm was over 80% in the assay with Phakopsora pachyrhizi (setting [3]) and under 80% in the assay with Phakopsora pachyrhizi (setting [4]).
As for `COCCC(=O)Oc1c(OC)ccnc1C(=O)NCC(=O)O[C@@H](C)[C@H](c1ccc(F)cc1C)C(C)C` [Compound 350], the pest or weed control at 121.5 g/ha is over 80% in the assay on Puccinia triticina (setting [1]), over 80% in the assay with Puccinia triticina (setting [2]), under 80% in the assay with Zymoseptoria tritici (setting [5]) and under 80% in the assay on Zymoseptoria tritici (setting [6]). Moreover, the pest or weed control at 25 ppm in the assay with Phakopsora pachyrhizi (setting [3]) and with Phakopsora pachyrhizi (setting [4]) was over 80% each time.
Consider `COc1ccnc(C(=O)N[C@@H](C)C(=O)O[C@@H](C)[C@@H](c2ccccc2)C(C)C)c1OCOC(C)=O` [Compound 162], for which the pest or weed control at 121.5 g/ha in the assay with Puccinia triticina (setting [1]) was over 80%; with Puccinia triticina (setting [2]) it was over 80%; in the assay with Zymoseptoria tritici (setting [5]) it was under 80%; in the assay on Zymoseptoria tritici (setting [6]), over 80%. Also, the results for the pest or weed control at 25 ppm with Phakopsora pachyrhizi (setting [3]) and in the assay on Phakopsora pachyrhizi (setting [4]) were over 80% and under 80%, respectively.
Turning to `CCC(C)[C@@H](c1ccc(F)cc1C)[C@H](C)OC(=O)[C@H](C)NC(=O)c1nccc(OC)c1OC(C)=O` (stereo partly shown) [Compound 188], the pest or weed control at 121.5 g/ha in the assay with Puccinia triticina (setting [1]) is over 80%; with Puccinia triticina (setting [2]) it was under 80%; in the assay on Zymoseptoria tritici (setting [5]), over 80%; in the assay with Zymoseptoria tritici (setting [6]), over 80%. Also, the pest or weed control at 25 ppm in the assay with Phakopsora pachyrhizi (setting [3]) and in the assay with Phakopsora pachyrhizi (setting [4]) was over 80% throughout.
On to `COc1ccnc2c(=O)n([C@@H](C)C(=O)O[C@@H](C)[C@@H](c3ccc(C)cc3C)C3CCCC3)c(=O)oc12` [Compound 209], for which the pest or weed control at 121.5 g/ha with Puccinia triticina (setting [1]) was under 0%; with Puccinia triticina (setting [2]), under 0%; with Zymoseptoria tritici (setting [5]), under 80%; with Zymoseptoria tritici (setting [6]), under 80%. Also, the pest or weed control at 25 ppm in the assay on Phakopsora pachyrhizi (setting [3]) is under 80%; in the assay on Phakopsora pachyrhizi (setting [4]), under 0%.
For the compound `COc1ccnc(C(=O)N[C@@H](C)C(=O)O[C@@H](C)[C@H](c2ccc(OC(C)C)cc2)C(C)C)c1OC(C)=O` [Compound 377], the pest or weed control at 121.5 g/ha with Puccinia triticina (setting [7]) was over 80%; in the assay with Puccinia triticina (setting [8]), under 80%; in the assay with Zymoseptoria tritici (setting [9]), under 80%; with Zymoseptoria tritici (setting [10]), under 80%. Further, the pest or weed control at 25 ppm in the assay with Phakopsora pachyrhizi (setting [3]) and in the assay with Phakopsora pachyrhizi (setting [4]) was under 80% each time.
For the compound `COc1ccnc(C(=O)N[C@@H](C)C(=O)O[C@@H](C)[C@H](c2ccc(F)cc2C)C2CCCC2)c1OC(C)=O` [Compound 184], the pest or weed control at 121.5 g/ha with Puccinia triticina (setting [1]), in the assay with Puccinia triticina (setting [2]), in the assay on Zymoseptoria tritici (setting [5]) and in the assay with Zymoseptoria tritici (setting [6]) was over 80% in each case. In addition, the pest or weed control at 25 ppm with Phakopsora pachyrhizi (setting [3]) was over 80%; in the assay with Phakopsora pachyrhizi (setting [4]), under 80%.
As for `COc1ccnc(C(=O)N[C@@H](C)C(=O)O[C@@H](C)[C@H](c2ccc(F)cc2C)C2CCCC2)c1OCOC(C)=O` [Compound 195], the pest or weed control at 121.5 g/ha with Puccinia triticina (setting [1]), in the assay with Puccinia triticina (setting [2]), with Zymoseptoria tritici (setting [5]) and in the assay on Zymoseptoria tritici (setting [6]) was over 80% each time. Also, the pest or weed control at 25 ppm in the assay with Phakopsora pachyrhizi (setting [3]) was over 80%; with Phakopsora pachyrhizi (setting [4]), under 80%.
For the compound `COc1ccnc(C(=O)N[C@@H](C)C(=O)O[C@@H](C)[C@H](c2ccc(F)c(F)c2)C(C)C)c1OC(C)=O` [Compound 244], the pest or weed control at 121.5 g/ha is over 80% in the assay on Puccinia triticina (setting [1]), over 80% in the assay with Puccinia triticina (setting [2]), over 80% in the assay with Zymoseptoria tritici (setting [5]) and under 80% with Zymoseptoria tritici (setting [6]). Moreover, the pest or weed control at 25 ppm with Phakopsora pachyrhizi (setting [3]) was over 80%; with Phakopsora pachyrhizi (setting [4]), under 80%.
Consider `COc1cc(F)ccc1[C@H](C1CCC1)[C@H](C)OC(=O)[C@H](C)NC(=O)c1nccc(OC)c1OCOC(C)=O` [Compound 236], for which the pest or weed control at 121.5 g/ha with Puccinia triticina (setting [1]), in the assay with Puccinia triticina (setting [2]), in the assay with Zymoseptoria tritici (setting [5]) and in the assay with Zymoseptoria tritici (setting [6]) was under 80% in each case. Also, the pest or weed control at 25 ppm is over 80% in the assay on Phakopsora pachyrhizi (setting [3]) and under 80% with Phakopsora pachyrhizi (setting [4]).
For the compound `COc1ccnc(C(=O)N[C@@H](C)C(=O)O[C@@H](C)[C@H](c2cc(F)ccc2C)C(C)C)c1O` [Compound 324], the pest or weed control at 100 ppm in the assay with Puccinia triticina (setting [11]) was over 80%; with Puccinia triticina (setting [12]) it was over 80%; in the assay on Zymoseptoria tritici (setting [13]) it was under 80%; with Zymoseptoria tritici (setting [14]), under 80%.
As to `COc1ccnc(C(=O)N[C@@H](C)C(=O)O[C@@H](C)[C@@H](c2ccc(C)cc2C)C2CCCCC2)c1O` [Compound 133], the pest or weed control at 100 ppm in the assay with Puccinia triticina (setting [11]) was over 80%; in the assay with Puccinia triticina (setting [12]), under 80%; with Zymoseptoria tritici (setting [13]), over 80%; in the assay with Zymoseptoria tritici (setting [14]) it was under 80%.
For `CCC(CC)[C@H](c1ccc(F)cc1C)[C@H](C)OC(=O)[C@H](C)NC(=O)c1nccc(OC)c1O` [Compound 117], the pest or weed control at 100 ppm is over 80% with Puccinia triticina (setting [11]), under 0% in the assay on Puccinia triticina (setting [12]), over 80% in the assay with Zymoseptoria tritici (setting [13]) and over 80% with Zymoseptoria tritici (setting [14]).
As for `COc1ccnc(C(=O)N[C@@H](C)C(=O)O[C@@H](C)[C@H](c2ccccc2F)C(C)C)c1O` [Compound 323], the pest or weed control at 100 ppm was over 80% in the assay on Puccinia triticina (setting [11]), over 80% with Puccinia triticina (setting [12]), under 80% in the assay with Zymoseptoria tritici (setting [13]) and over 80% with Zymoseptoria tritici (setting [14]).
On to `COc1ccnc(C(=O)N[C@@H](C)C(=O)O[C@@H](C)[C@@H](c2ccc(F)cc2C)C2CCC2)c1O` [Compound 121], for which the pest or weed control at 100 ppm was over 80% with Puccinia triticina (setting [11]), under 80% in the assay with Puccinia triticina (setting [12]), under 80% with Zymoseptoria tritici (setting [13]) and over 80% in the assay with Zymoseptoria tritici (setting [14]).
With `COc1ccnc(C(=O)N[C@@H](C)C(=O)O[C@@H](C)[C@H](c2c(F)cccc2Cl)C(C)C)c1OC(C)=O` [Compound 390], the pest or weed control at 121.5 g/ha in the assay on Puccinia triticina (setting [7]), in the assay on Puccinia triticina (setting [8]), in the assay on Zymoseptoria tritici (setting [9]) and in the assay on Zymoseptoria tritici (setting [10]) was over 80% each time.
Turning to `COc1ccnc(C(=O)N[C@@H](C)C(=O)O[C@@H](C)[C@H](c2cc(F)ccc2F)C(C)C)c1OC(C)=O` [Compound 392], the pest or weed control at 121.5 g/ha was over 80% in the assay on Puccinia triticina (setting [7]), over 80% in the assay on Puccinia triticina (setting [8]), under 80% in the assay on Zymoseptoria tritici (setting [9]) and over 80% in the assay with Zymoseptoria tritici (setting [10]).
Take `COc1ccnc(C(=O)N[C@@H](C)C(=O)O[C@@H](C)[C@@H](c2ccccc2)C(C)C)c1OC(C)=O` [Compound 160]: the pest or weed control at 121.5 g/ha in the assay with Puccinia triticina (setting [1]) was over 80%; with Puccinia triticina (setting [2]) it was under 80%; in the assay with Zymoseptoria tritici (setting [5]), under 80%; with Zymoseptoria tritici (setting [6]), over 80%.
Consider `COc1ccnc(C(=O)N[C@@H](C)C(=O)O[C@@H](C)[C@H](c2cccc(C)c2)C(C)C)c1OC(C)=O` [Compound 391], for which the pest or weed control at 121.5 g/ha with Puccinia triticina (setting [7]) was over 80%; in the assay with Puccinia triticina (setting [8]), under 80%; in the assay on Zymoseptoria tritici (setting [9]) it was under 80%; with Zymoseptoria tritici (setting [10]), under 80%.
As to `COc1ccnc(C(=O)N[C@@H](C)C(=O)O[C@@H](C)[C@H](c2ccc(F)cc2C)C2CCC2)c1O` [Compound 127], the pest or weed control at 100 ppm in the assay on Puccinia triticina (setting [11]) was over 80%; in the assay on Puccinia triticina (setting [12]), over 80%; with Zymoseptoria tritici (setting [13]), over 80%; with Zymoseptoria tritici (setting [14]), under 80%.
